The text below walks through data of patent US6391917B1, “Dialkyl ureas as calcitonin mimetics” (ZymoGenetics, Inc., priority 1998, dated 2002).

The structures appear in SMILES notation.

Holding throughout (type): cell-based
Experiment [1] has as its target T1, Human calcitonin receptor (Homo sapiens, UniProt P30988).
T1 construct: expressed in transfected cells; host or cells: BHK-570 (Hollex-1)
T1 sequence (P30988 25-474): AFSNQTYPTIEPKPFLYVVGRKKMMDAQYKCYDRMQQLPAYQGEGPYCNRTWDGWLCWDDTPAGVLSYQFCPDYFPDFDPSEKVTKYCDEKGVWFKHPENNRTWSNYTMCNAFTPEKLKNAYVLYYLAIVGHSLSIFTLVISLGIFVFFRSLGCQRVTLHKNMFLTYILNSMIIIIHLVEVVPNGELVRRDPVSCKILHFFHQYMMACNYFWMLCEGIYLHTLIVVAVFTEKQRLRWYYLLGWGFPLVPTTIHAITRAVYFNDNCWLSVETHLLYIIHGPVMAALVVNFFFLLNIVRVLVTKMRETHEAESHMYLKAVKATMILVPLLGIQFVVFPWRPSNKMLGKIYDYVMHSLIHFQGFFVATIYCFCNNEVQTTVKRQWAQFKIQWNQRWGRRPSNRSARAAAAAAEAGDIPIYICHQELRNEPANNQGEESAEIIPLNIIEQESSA
The experiment can be described thus: CRE-luciferase assay for calcitonin mimetics (Hollex-1). The procedure:
CRE-Luciferase Assay Method for Calcitonin Mimetics
Human calcitonin receptor-positive and receptor-negative BHK-570 (Baby Hamster Kidney) cell lines were maintained by serial passage in growth medium (DMEM supplemented with 10% heat-inactivated fetal calf serum (HI-FCS), 2 mM L-glutamine, 1 mM sodium pyruvate, 250 nM MTX, and 1 mg/mL G418). On the day prior to assay, cells were trypsinized, adjusted to 2.5×10^5 cells/ml in growth medium, plated in opaque white Dynatech Microlite microtiter tissue culture plates at 50 μL/well, and grown overnight to confluence (37° C., 5% CO2 atmosphere).
Test substances were prepared in DMSO or 10% DMF at 100 times the final desired assay concentration. […] Controls were included on each plate: untreated wells (basal), […], and 100 nM human calcitonin. DMSO or DMF was included in control wells at a concentration equal to that in test samples (not to exceed a final assay concentration of 2% DMSO or 0.5% DMF, with a preferred maximum of 1% DMSO or 0.1% DMF).
Plates were incubated for 3 to 8 hours (4 hours preferred) at 37° C. in an atmosphere of 5% CO2. Following induction, luciferase activity was measured using a Promega luciferase assay kit (E1500) according to the assay kit protocol (Promega Corp., Madison, Wis.). Briefly, assay medium was removed and cells were washed once with phosphate buffered saline (PBS). After the wash, 25 μl of lysis buffer was added to each well, and the plates were incubated for 15 minutes at room temperature. Fifty microliters of Luciferase Assay Substrate (Promega, Corp.) was added to each well and the plates were transferred to a Labsystems Lumiscan microtiter luminometer (Labsystems Inc., Morton Grove, Ill.). The amount of luminescence (relative light units, RLU) was determined following a 0.1 second/well integration of signal. Basal (uninduced) luciferase signal was subtracted from all measurements, and the luciferase signal induced by test samples was expressed as a percentage of the signal in the calcitonin and forskolin controls. Specificity of the luciferase induction for calcitonin receptor-positive cell lines was determined by comparing the percent control values in the calcitonin receptor-positive line (Hollex-1) to those observed in the calcitonin receptor-negative cell line (KZ10-20-48/Zem 228) and the PTH receptor-positive cell line (KZ10-20-48/PTH-20) described below. Samples inducing a signal over the basal level were selected for further characterization, see Table 1 for examples.

The subject of experiment [2] is osteoclasts in mouse calvariae. Briefly: Calvaria histology (osteoclast number and size, toxicity). The following applies: for Histology (bone destruction by PTH, Oc size and #): mouse calvariae treated with PTH. An excerpt: To confirm the findings in the calvarial bone resorption assay employing calcium release from culture mouse calvariae, selected bones were fixed in 10% neutral buffered formalin and demineralized in 5% formic acid with 5% formalin. The bones were dehydrated through an ascending series of ethanol concentrations, infiltrated in glycol methacrylate, and embedded using a JB-4 embedding kit (PolySciences, Warrington, Pa.) (Liu, et al., J. Bone Mineral Res. 5:973-82, 1990). When necessary, an alternative embedding method (paraffin embedding) was used to speed up the embedding process. Cross sections of calvariae cut at 5 μm were obtained and stained for tartrate-resistant acid phosphatase (TRAP) activity and counterstained with methyl green and thionin for cell morphology (Liu, et al., ibid.). Osteoclasts were identified by TRAP stain, multinucleation, large cell size, and irregular cell shape. The number of osteoclasts were counted from endocranial and ectocranial bone surfaces and expressed as number/mm perimeter. The size of all the osteoclasts counted was also measured using a Bone Morphometry program (Liu, et al., ibid.; Bain, et al., J. Bone Miner. Res. 8:435-42, 1993). […] This PTH-induced increase was suppressed by treatment with human calcitonin.
Calcitonin mimetic compounds were evaluated in a similar fashion for their ability to suppress PTH-induced increases in osteoclast number and size (Table 2). Cell toxicity (or death) was also evaluated by the appearance of pyknotic nuclei in a small number of bone cells. With an increased level of toxicity, a further increase in the number of these pyknotic nuclei, detachment of cells from bone surfaces, and losses of cytoplasmic stain and cell boundaries were observed. The osteocytic space also appeared empty.

Experiment [3] relates to PTH-induced bone resorption in mouse calvariae. The experiment can be described thus: Calvarial assay: PTH-induced bone resorption, calcium release. As to conditions: 1 nM PTH 1-34, 72 hours. The procedure: Calvaria from 4-day old neonatal CD-1 mice (pregnant mice received from Charles River Laboratories, Wilmington, Mass.) were trimmed with fine-tipped scissors to leave the parietal regions, including the sagittal suture. These trimmed bones were placed singly per well into 6-well cell culture cluster plates (Costar, Pleasanton, Calif.) with 1 ml/well of Dulbecco's […] Essential Medium, […] (DMEM, BioWhittaker, Walkersville, Md.) or Basal Eagle's Medium with Earle's salts (EMEM, Gibco/BRL, Grand Island, N.Y.) and 0.29 mg/ml L-glutamine, 1 mM sodium pyruvate, 15% heat-inactivated horse serum, and antibiotics (penicillin-G 50 μg/ml, streptomycin 50 μg/ml, and neomycin 100 μg/ml). Calvaria were rocked gently (RedRocker™, model PR50-115 V, Hoefer, San Francisco, Calif. or Labline Rocking Shaker, model 4635, Labline Instruments, Melrose Park, Ill.) at 37° C. in a 5% CO2 humidified incubator for 24 hours preincubation.
Following preincubation, medium was removed and replaced with 1.5 ml/well of growth medium containing 1 nM parathyroid hormone (PTH) 1-34 (Sigma) to stimulate bone resorption. For evaluation of the ability of calcitonin mimetics to inhibit PTH induced bone resorption, mimetic compounds in DMSO were added to the growth medium at concentrations ranging from 1-400 μg/ml (final assay concentration of DMSO less than or equal to 1%). In each experiment human calcitonin (0.02-2 nM, 0.2-2 nM preferred) was added to PTH treated bones as a positive control. […] All control wells contained a final assay concentration of DMSO equal to that present in calcitonin mimetic treated wells.
Five bones were included in each sample group. Bones were incubated for 72 hours following PTH addition to allow resorption of bone to occur. Observations were made of the general appearance, healthiness and number of cells. that migrate from the calvaria during the incubation as a possible indication of cell toxicity. Calvaria to be examined histologically were transferred to glass scintillation vials containing 10 ml of 10% neutral buffered formalin. […]

On to `CC(C)(C)c1ccc(C(C)(C)C)c(NC(=O)N[C@H](Cc2ccc3ccccc3c2)C(=O)NCc2ccc3ccccc3c2)c1` [628-055], for which the “Luciferase induction (% of maximum luciferase induction produced by CT, 100 nM)” value in experiment [1] (crude compound 6.25 μg/ml) came out at 24.81%; in experiment [1] (crude compound 12.5 μg/ml), 35.48%; in experiment [1] (crude compound 25 μg/ml), 43.3%; in experiment [1] (crude compound 50 μg/ml), 48.69%. Besides, in experiment [2], the “Histology (bone destruction by PTH, Oc size and #)” value (shortened to “Histology”) is recorded as “Decreases in bone”. Besides, the “Release of PTH Induced Ca++ IC50” value in experiment [3] stood at 14 µg/mL.

As to `CC(C)(C)c1ccc(C(C)(C)C)c(NC(=O)N[C@H](Cc2ccc(F)cc2)C(=O)NCc2ccc3ccccc3c2)c1` [628-053], the “Luciferase induction (% of maximum luciferase induction produced by CT, 100 nM)” value came out at 3.29% in experiment [1] (crude compound 3.125 μg/ml); 11.89% in experiment [1] (crude compound 6.25 μg/ml); 32.31% in experiment [1] (crude compound 12.5 μg/ml); 41.8% in experiment [1] (crude compound 25 μg/ml); 40.14% in experiment [1] (crude compound 50 μg/ml).

Regarding `CC(C)(C)c1ccc(C(C)(C)C)c(NC(=O)N[C@H](Cc2ccc3ccccc3c2)C(=O)NCc2ccccc2)c1` [628-045], the “Luciferase induction (% of maximum luciferase induction produced by CT, 100 nM)” value in experiment [1] (crude compound 3.125 μg/ml) came to 20.19%; in experiment [1] (crude compound 6.25 μg/ml) it was 38.73%; in experiment [1] (crude compound 12.5 μg/ml) it was 42.49%; in experiment [1] (crude compound 25 μg/ml), 44.51%; in experiment [1] (crude compound 50 μg/ml), 40.62%.

As to `C=CCNC(=O)[C@@H](Cc1ccc2ccccc2c1)NC(=O)Nc1cc(C(C)(C)C)ccc1C(C)(C)C` [628-035], the “Luciferase induction (% of maximum luciferase induction produced by CT, 100 nM)” value stood at 34.84% in experiment [1] (crude compound 6.25 μg/ml), 43.25% in experiment [1] (crude compound 12.5 μg/ml), 46.43% in experiment [1] (crude compound 25 μg/ml) and 52.27% in experiment [1] (crude compound 50 μg/ml). The “Histology” value in experiment [2] is “Decreases in bone”. Besides, the “Release of PTH Induced Ca++ IC50” value in experiment [3] is 23 µg/mL.

With `CCNC(=O)C(Cc1ccc(OCC)cc1)NC(=O)Nc1cc(C(C)(C)C)ccc1C(C)(C)C` (stereo not shown) [628-007], the “Luciferase induction (% of maximum luciferase induction produced by CT, 100 nM)” value worked out at 0.76% in experiment [1] (crude compound 3.125 μg/ml); 10.61% in experiment [1] (crude compound 6.25 μg/ml); 31.97% in experiment [1] (crude compound 12.5 μg/ml); 55.34% in experiment [1] (crude compound 25 μg/ml); 31.73% in experiment [1] (crude compound 50 μg/ml).

Regarding `C=CCNC(=O)[C@H](NC(=O)Nc1cc(C(C)(C)C)ccc1C(C)(C)C)c1ccccc1` [628-036], the “Luciferase induction (% of maximum luciferase induction produced by CT, 100 nM)” value in experiment [1] (crude compound 6.25 μg/ml) was 4.12%; in experiment [1] (crude compound 12.5 μg/ml), 6.43%; in experiment [1] (crude compound 25 μg/ml), 8.0%; in experiment [1] (crude compound 50 μg/ml), 10.38%.

As to `CC(C)(C)c1ccc(C(C)(C)C)c(NC(=O)N[C@H](Cc2ccc(I)cc2)C(=O)NCc2ccc3ccccc3c2)c1` [628-054], the “Luciferase induction (% of maximum luciferase induction produced by CT, 100 nM)” value stood at 10.73% in experiment [1] (crude compound 3.125 μg/ml); 27.05% in experiment [1] (crude compound 6.25 μg/ml); 42.54% in experiment [1] (crude compound 12.5 μg/ml); 47.47% in experiment [1] (crude compound 25 μg/ml); 54.86% in experiment [1] (crude compound 50 μg/ml).

Consider `C=CCNC(=O)[C@@H](Cc1ccc(F)cc1)NC(=O)Nc1cc(C(C)(C)C)ccc1C(C)(C)C` [628-033], for which the “Luciferase induction (% of maximum luciferase induction produced by CT, 100 nM)” value in experiment [1] (crude compound 6.25 μg/ml) worked out at 14.71%; in experiment [1] (crude compound 12.5 μg/ml), 27.68%; in experiment [1] (crude compound 25 μg/ml), 31.63%; in experiment [1] (crude compound 50 μg/ml) it was 33.62%. Also, the “Histology” value in experiment [2] is given as “Decreases in bone”. In addition, in experiment [3], the “Release of PTH Induced Ca++ IC50” value was found to be 30 µg/mL.

`CC[C@H](C)[C@H](NC(=O)[C@H](C)NC(=O)[C@@H](NC(=O)[C@H](CCC(N)=O)NC(=O)[C@@H]1CCCN1C(=O)[C@H](Cc1ccccc1)NC(=O)[C@@H](NC(=O)[C@H](Cc1c[nH]cn1)NC(=O)[C@H](Cc1ccccc1)NC(=O)[C@H](CCCCN)NC(=O)[C@H](CC(N)=O)NC(=O)[C@H](Cc1ccccc1)NC(=O)[C@H](CC(=O)O)NC(=O)[C@H](CCC(N)=O)NC(=O)[C@@H](NC(=O)[C@H](Cc1ccc(O)cc1)NC(=O)[C@@H](NC(=O)CNC(=O)[C@H](CC(C)C)NC(=O)[C@H](CCSC)NC(=O)[C@@H]1CSSC[C@H](N)C(=O)NCC(=O)N[C@@H](CC(N)=O)C(=O)N[C@@H](CC(C)C)C(=O)N[C@@H](CO)C(=O)N[C@@H]([C@@H](C)O)C(=O)N1)[C@@H](C)O)[C@@H](C)O)[C@@H](C)O)[C@@H](C)O)C(=O)NCC(=O)N[C@H](C(=O)NCC(=O)N[C@@H](C)C(=O)N1CCC[C@H]1C(N)=O)C(C)C` [human calcitonin, reference compound]: the “PTH-induced increase in number and size of osteoclasts” value in experiment [2] (mouse calvariae, PTH 1-34 treatment) is “suppressed”.
